Results taken from patent US8952054B2, “Small molecule inhibitors of MUC1 and methods of identifying the same” (Dana-Farber Cancer Institute, Inc., priority 2010, dated 2015).

Columns and labels:
Format in all cases: cell-based, human
[1] = system: BT474 cells; test: BT474 viability (MTS) and colony formation
Procedure: FIGS. 16A-D—Effects of apigenin on breast cancer cells without and with endogenous MUC1 expression. (FIG. 16A) Lysates from human MCF-7, HCC1937 and BT474 cells were immunoblotted with the indicated antibodies. (FIG. 16B) BT474 cells were treated with indicated concentrations of apigenin and baicalein for 3 d, washed and then treated for an additional 3 d. Lysates were immunoblotted with the indicated antibodies. (FIG. 16C) BT474 (triangles) and HCC1937 (squares) cells were treated with apigenin for 3 d. Viable cell numbers were determined by MTS assay. The results (mean+SD of 3 determinations) are expressed as percentage of control growth in the presence of DMSO. (FIG. 16D) BT474 cells were plated at a density of 5000 cells/6 cm dish. At 24 h after seeding, DMSO or apigenin at concentrations of 25, 50 and 75 μM was added to the medium. After 2 weeks, colonies were stained with crystal violet. The results (mean+SD of 3 determinations) are expressed as percentage of control colony formation in the presence of DMSO.

[2] = system: MCF-7 cells; test: MCF-7 cell number (MTS), caspase-9 cleavage, PI uptake and colony formation; conditions: for colony formation: 2 weeks
Procedure: FIGS. 14A-E—Apigenin suppresses MUC1 expression in MCF-7 cells. (FIG. 14A) MCF-7 cells were treated with DMSO vehicle, 75 μM apigenin or 75 μM baicalein for 3 d. Total RNA was assayed for MUC1 mRNA levels by qRTPCR. The results (mean+SD of 3 determinations) are expressed as relative MUC1 mRNA levels as compared to that obtained in cells treated with DMSO. (FIGS. 14B-C) MCF-7 cells were treated with the indicated concentrations of apigenin and baicalein for 3 days. Nuclear (FIG. 14B) and whole cell lysates (FIG. 14C) were immunoblotted with the indicated antibodies. D. Lysates from MCF-7 cells were infected to stably express a control lentivirus and one with a MUC1 shRNA were immunoblotted with the indicated antibodies. (FIG. 14E) The indicated MCF-7 cells were treated with […] apigenin for 3 d. Viable cell number was determined by the MTS assay. The results (mean+SD of 3 determinations) are expressed as percentage of control growth in the presence of DMSO.
FIGS. 15A-C—Apigenin inhibits MCF-7 clonogenic survival. (FIG. 15A) MCF-7 cells were treated with DMSO, 75 μM apigenin or 75 μM baicalein for 3 d. Lysates were immunoblotted with the indicated antibodies. (FIG. 15B) MCF-7 cells were treated with DMSO, 75 μM apigenin or 75 μM baicalein for 3 d, stained with propidium iodide and analyzed by flow cytometry. […] (FIG. 15C) MCF-7 cells were plated at a density of 1000 cells/6 cm dish. At 24 h after seeding, DMSO or apigenin at concentrations of 25, 50 and 75 μM was added to the medium. After 2 weeks, colonies were stained with crystal violet. The results (mean+SD of 3 determinations) are expressed as percentage of control colony formation in the presence of DMSO.

[3] = system: ZR-75-1/vector cells; test: Viable cell number by trypan blue exclusion, ZR-75-1/vector; conditions: 5 μM
Procedure: (§1) FIGS. 4A-E. Selectivity of MUC1/CQC for MUC1 expressing breast cancer cells. (FIG. 4A) ZR-75-1 cells were stably infected with an empty lentivirus (vector) or one expressing a MUC1 siRNA. Lysates for the infected cells were immunoblotted with the indicated antibodies. (FIG. 4B) ZR-75-1/vector cells were left untreated (diamonds), and ZR-75-1/vector (squares) and ZR-75-1/MUC1 siRNA (triangles) cells were treated with 5 μM MUC1/CQC peptide for the indicated times. Viable cell number was determined by trypan blue exclusion. (FIG. 4C) 293 cells were left untreated (diamonds), and treated with 5 μM MUC1/CQC (squares) or MUC1/AQA (triangles) for the indicated times. Viable cell number was determined by trypan blue exclusion. (FIG. 4D) MCF-10A cells were left untreated (left panel), and treated with 5 μM MUC1/CQC (middle panel) or MUC1/AQA (right panel). At 3 d, cells were analyzed for cell cycle distribution. […] Viable cell number was determined by trypan blue exclusion.
(§2) Human breast cancer ZR-75-1, ZR-75-1/vector, ZR-75-1/MUC1siRNA (Ren et al., 2004) cell lines were grown in RPMI1640 medium supplemented with 10% heat-inactivated fetal bovine serum (HI-FBS), 100 U/ml penicillin, and 100 μg/ml streptomycin (Invitrogen) in a humidified incubator at 37° C. and 5% CO2. […] Viability was determined by trypan blue exclusion.

[4] = system: ZR-75-1/MUC1siRNA cells; test: Viable cell number by trypan blue exclusion, ZR-75-1/MUC1siRNA; conditions: 5 μM, versus ZR-75-1/vector
Procedure: as §1, §2

[5] = system: MCF-10A cells; test: Cell cycle distribution and growth of MCF-10A cells (peptide); conditions: 5 μM
Procedure: as §1
as §2, with “exclusion. […]” for “exclusion.”

Row | SMILES | clonogenic survival ([1]; BT474, 25, 50 and 75 μM, 2 weeks) | viability (MTS) ([1]; BT474, 3 d) | colony formation ([2]; MCF-7, 25 μM) | caspase-9 cleavage ([2]; MCF-7, 75 μM, 3 d) | cell membrane integrity (PI) ([2]; MCF-7, 75 μM, 3 d) | effect of silencing MUC1 (shRNA) on apigenin-induced decreases in cell number ([2]; MCF-7, 75 µM, 3 d, MTS) | colony formation ([2]; MCF-7, higher concentrations (50 and 75 μM)) | growth / viable cell number [3] | growth / viable cell number [4] | growth / viable cell number [5] | cell cycle distribution ([5]; 3 d)
1 | O=c1cc(-c2ccc(O)cc2)oc2cc(O)cc(O)c12 [Apigenin, 4′,5,7-trihydroxyflavone] | concentration dependent decreases in clonogenic survival | loss of viability | substantial decrease in colonies | cleavage of caspase-9 | loss of cell membrane integrity | partially decreased sensitivity | complete loss of survival | – | – | – | –
2 | CC[C@H](C)[C@H](NC(=O)[C@H](CC(=O)O)NC(=O)[C@H](CC(C)C)NC(=O)[C@H](CCC(N)=O)NC(=O)CNC(=O)[C@H](Cc1ccc(O)cc1)NC(=O)[C@H](CC(N)=O)NC(=O)[C@H](CCCCN)NC(=O)[C@H](CCCNC(=N)N)NC(=O)[C@H](CCCNC(=N)N)NC(=O)[C@H](CS)NC(=O)[C@H](CCC(N)=O)NC(=O)[C@H](CS)NC(=O)[C@@H](CCCNC(=N)N)NC(=O)[C@@H](CCCNC(=N)N)NC(=O)[C@@H](CCCNC(=N)N)NC(=O)[C@@H](CCCNC(=N)N)NC(=O)[C@@H](CCCNC(=N)N)NC(=O)[C@@H](CCCNC(=N)N)NC(=O)[C@@H](CCCNC(=N)N)NC(=O)[C@@H](CCCNC(=N)N)NC(=O)[C@H](N)CCCNC(=N)N)C(=O)N[C@@H](Cc1ccccc1)C(=O)N1CCC[C@H]1C(=O)O [MUC1/CQC] | – | – | – | – | – | – | – | growth arrest and death | substantially less effect | no effect | no effect
